Test results published in patent publication EP1123702A1, “ANALGESICS” (Eisai Co., Ltd., priority 1998, dated 2000).
Structures can show the parent of a compound that is named as a salt.

Columns and labels:
[1] = tested on: writhing behavior; assay: Analgesic action by a writhing method using acetic acid; format: in vivo, Male mice of a ddY strain; conditions: sc; statistically minimum effective dose; 0.6% acetic acid ip 15 minutes after the drug, writhing counted for ten minutes; mice
[2] = molecular target: T1, 5HT1A (Homo sapiens, UniProt P08908); assay: Serotonin (5HT) receptor binding action (RBA; in vitro), 5HT1A; conditions: method of JP98/01481 or JP-A 10-281752
T1 sequence (P08908 1-422): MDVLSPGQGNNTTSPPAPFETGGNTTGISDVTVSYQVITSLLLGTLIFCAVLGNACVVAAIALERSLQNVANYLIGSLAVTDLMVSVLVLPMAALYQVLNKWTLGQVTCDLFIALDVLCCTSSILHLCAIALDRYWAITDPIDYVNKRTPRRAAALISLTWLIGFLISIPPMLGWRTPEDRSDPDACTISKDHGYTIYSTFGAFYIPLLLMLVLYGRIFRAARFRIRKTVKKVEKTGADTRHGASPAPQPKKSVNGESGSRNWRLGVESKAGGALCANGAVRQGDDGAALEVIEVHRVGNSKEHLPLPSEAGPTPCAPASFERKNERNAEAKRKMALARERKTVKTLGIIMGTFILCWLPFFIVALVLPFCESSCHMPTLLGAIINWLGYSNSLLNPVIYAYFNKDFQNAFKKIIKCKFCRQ

[3] = molecular target: 5HT2 (Homo sapiens, UniProt P28223); assay: Serotonin (5HT) receptor binding action (RBA; in vitro), 5HT2; conditions: method of JP98/01481 or JP-A 10-281752
[4] = Muscle relaxing action (in vivo); conditions: method of JP98/01481 or JP-A 10-281752
Text: There are also shown a serotonin (5HT) receptor binding action (RBA; in vitro) and a muscle relaxing action (in vivo) measured according to a method described in JP98/01481 or JP-A 10-281752. (In the table, "n.t." means "not tested").

5HT2, sequence (P28223 whole entry, species assumed): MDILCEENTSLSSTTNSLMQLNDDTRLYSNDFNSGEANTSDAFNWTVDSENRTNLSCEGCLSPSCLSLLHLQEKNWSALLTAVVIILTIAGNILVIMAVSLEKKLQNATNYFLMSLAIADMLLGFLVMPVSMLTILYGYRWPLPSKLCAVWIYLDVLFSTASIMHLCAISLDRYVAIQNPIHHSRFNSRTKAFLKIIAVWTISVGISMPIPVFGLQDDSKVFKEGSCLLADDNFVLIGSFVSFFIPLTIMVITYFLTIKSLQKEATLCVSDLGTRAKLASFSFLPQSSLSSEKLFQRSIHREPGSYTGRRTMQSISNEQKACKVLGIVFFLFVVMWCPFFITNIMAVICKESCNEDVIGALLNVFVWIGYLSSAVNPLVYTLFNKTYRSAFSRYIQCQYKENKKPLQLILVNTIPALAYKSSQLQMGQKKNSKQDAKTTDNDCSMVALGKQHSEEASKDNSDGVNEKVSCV

SMILES	Analgesic Action (minimum effective dose) [1] [mg/kg]	Ki [2] [nM]	Ki [3] [nM]	Muscle-Relaxing Action (ip) [4]	Muscle-Relaxing Action (po) [4]
CC(=O)NCc1ccc2ccn(C3CCN(CCc4ccc(F)cc4)CC3)c2c1 [(1), 1-[1-(4-Fluorophenethyl)piperidin-4-yl]-6-(N-acetylaminomethyl)indole]	0.3	0.51	1.38	0.3 mg/kg	1 mg/kg
CCC(=O)NCc1ccc2ccn(C3CCN(CCc4ccc(F)cc4)CC3)c2c1 [(2), 1-[1-(4-fluorophenethyl)piperidin-4-yl]-6-(N-propionylaminomethyl)indole]	3	1	2.6	0.3 mg/kg	3 mg/kg
COc1ccc(CCN2CCC(n3ccc4ccc(CNC(C)=O)cc43)CC2)cc1 [(3), 1-[1-(4-methoxyphenethyl)piperidin-4-yl]-6-(N-acetylaminomethyl)indole]	10	0.27	> 20		
CC(=O)NCc1ccc2ccn(C3CCN(CCc4ccccc4F)CC3)c2c1 [(4), 1-[1-(2-fluorophenethyl)piperidin-4-yl]-6-(N-acetylaminomethyl)indole]	3	1.58	0.75		10 mg/kg
O=C(Cc1ccc2ccn(C3CCN(CCc4ccc(F)cc4)CC3)c2c1)NCCO [(6), 1-[1-(4-fluorophenethyl)piperidin-4-yl]-6-(N-hydroxyethylamidemethyl)indole]	> 10				10 mg/kg
CN(C)C(=O)Cc1ccc2ccn(C3CCN(CCc4ccc(F)cc4)CC3)c2c1 [(7), 1-[1-(4-fluorophenethyl)piperidin-4-yl]-6-(N,N-dimethylamidemethyl)indole oxalate]	> 10				
NC(=O)Cc1ccc2ccn(C3CCN(CCc4ccc(F)cc4)CC3)c2c1 [(8), 1-[1-(4-fluorophenethyl)piperidin-4-yl]-6-amidemethylindole]	> 3				3 mg/kg
CNC(=O)Cc1ccc2ccn(C3CCN(CCc4ccc(F)cc4)CC3)c2c1 [(9), 1-[1-(4-fluorophenethyl)piperidin-4-yl]-6-(N-methylamidemethyl)indole]	1			0.3 mg/kg	3 mg/kg
CNC(=O)Cc1ccc2ccn(C3CCN(CCc4ccccc4F)CC3)c2c1 [(10), 1-[1-(2-fluorophenethyl)piperidin-4-yl]-6-(N-methylamidemethyl)indole]	3	4.02	1.23	3 mg/kg	< 1 mg/kg
CCNC(=O)Cc1ccc2ccn(C3CCN(CCc4ccccc4F)CC3)c2c1 [(11), 1-[1-(2-fluorophenethyl)piperidin-4-yl]-6-(N-ethylamidemethyl)indole]	3				10 mg/kg
O=C(Cc1ccc2ccn(C3CCN(CCc4ccccc4F)CC3)c2c1)NCCO [(12), 1-[1-(2-fluorophenethyl)piperidin-4-yl]-6-(N-hydroxyethylamidemethyl)indole]	10				> 10 mg/kg
NC(=O)Cc1ccc2ccn(C3CCN(CCc4ccccc4F)CC3)c2c1 [(13), 1-[1-(2-fluorophenethyl)piperidin-4-yl]-6-amidemethylindole]	3	0.59	2.81	1 mg/kg	3 mg/kg
CC(=O)NCc1ccc2c(c1)N(C1CCN(CCc3ccc(F)cc3)CC1)CC2 [(14), 1-[1-(4-fluorophenethyl)piperidin-4-yl]-6-(N-acetylaminomethyl)indoline]	0.3	6.43	0.43	0.3 mg/kg	0.3 mg/kg
CCN1CCN(c2nc(-c3ccc(OC)cc3)cc3ccccc23)CC1 [(15), 1-(4-ethylpiperazin-1-yl)-3-(4-methoxyphenyl)isoquinoline]	3	59.9	11.1		
CCN1CCN(c2nc(-c3ccc(OCCO)cc3)cc3ccccc23)CC1 [(16), 1-(4-ethylpiperazin-1-yl)-3-(4-hydroxyethoxyphenyl)isoquinoline]	1	31.5	4.2	1 mg/kg	3 mg/kg
CCC(O)c1ccc(-c2cc3ccccc3c(N3CCN(CC)CC3)n2)cc1 (stereo not shown) [(17), 1-(4-ethylpiperazin-1-yl)-3-[4-(1-hydroxypropyl)phenyl]isoquinoline]	1	6.9	1.6	1 mg/kg	10 mg/kg
CCCNC(=O)c1ccc(-c2cc3ccccc3c(N3CCN(CC)CC3)n2)cc1 [(18), 1-(4-ethylpiperazin-1-yl) -3-[4-(N-propylamide)phenyl]isoquinoline hydrochloride]	1	14.6	1.1	> 10 mg/kg	3 mg/kg
CCN1CCN(c2nc(-c3ccc(CCC(C)(C)O)c(F)c3)cc3ccccc23)CC1.Cl [(19), 1-(4-ethylpiperazin-1-yl)-3-[3-fluoro-4-(3-hydroxy-3-methylbutyl)phenyl]isoquinoline hydrochloride]	1	31.2	0.7	< 10 mg/kg	3 mg/kg
CCN1CCN(c2nc(-c3cccc(CCCO)c3)cc3ccccc23)CC1 [(22), 1-(4-ethylpiperazin-1-yl)-3-(3-hydroxypropylphenyl)isoquinoline hydrochloride]	3	54.5	17.4		
CC(C)(O)COc1ccc(-c2cc3sccc3c(N3CCN(CCO)CC3)n2)cc1.Cl [(27), 4-(4-hydroxyethylpiperazin-1-yl)-6-[4-(2-hydroxy-2-methylpropoxy)phenyl]thieno[3,2-c]pyridine hydrochloride]	1	1530	0.35		
COc1cccc(C(O)C2CCN(CCc3ccc(F)cc3)CC2)c1OC (stereo not shown) [MDL-100,907, reference compound]	3			0.3 mg/kg	1 mg/kg
CN1CC[C@]23c4c5ccc(O)c4O[C@H]2[C@@H](O)C=C[C@H]3[C@H]1C5.Cl [Morphine Hydrochloride, morphine hydrochloride, reference compound]	1			Ineffective (Strain Induced)	Ineffective (Strain Induced)
COc1ccccc1N1CCN(CCN(C(=O)C2CCCCC2)c2ccccn2)CC1 [WAY-100,635, reference compound]	3		> 200	> 10 mg/kg	
